# Test results: PMC7044277 (Nature Communications, 2020)
# “And” between values parts separate entries of the source, which are not always exact repeats. Equal entries are not always repeated.
# Columns and labels:
# [1] = target: T1, DRD4 (D4.4 variant) (Homo sapiens, UniProt P21917); experiment: Gαi/o-mediated cAMP inhibition (GloSensor); type: cell-based; settings: DRD4; agonist, cAMP inhibition; read-out: EC50 ± SEM
# T1 sequence (P21917 1-419): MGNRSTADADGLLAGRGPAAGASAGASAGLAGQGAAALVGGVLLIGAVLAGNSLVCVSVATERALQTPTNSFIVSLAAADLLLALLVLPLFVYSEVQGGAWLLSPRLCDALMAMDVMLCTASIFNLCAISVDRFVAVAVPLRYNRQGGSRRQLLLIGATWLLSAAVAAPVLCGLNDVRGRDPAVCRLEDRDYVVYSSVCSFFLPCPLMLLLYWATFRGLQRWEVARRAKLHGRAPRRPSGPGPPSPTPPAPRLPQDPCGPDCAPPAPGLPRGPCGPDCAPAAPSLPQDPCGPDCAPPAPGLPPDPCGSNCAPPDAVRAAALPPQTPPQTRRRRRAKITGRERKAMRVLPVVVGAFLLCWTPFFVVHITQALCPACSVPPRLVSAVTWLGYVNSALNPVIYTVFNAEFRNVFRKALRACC
# [2] = target: DRD3 wild-type (Homo sapiens, UniProt P35462); experiment: Radioligand competition binding, [3H]-N-methylspiperone
# Chain of DRD3 wild-type (P35462 whole entry): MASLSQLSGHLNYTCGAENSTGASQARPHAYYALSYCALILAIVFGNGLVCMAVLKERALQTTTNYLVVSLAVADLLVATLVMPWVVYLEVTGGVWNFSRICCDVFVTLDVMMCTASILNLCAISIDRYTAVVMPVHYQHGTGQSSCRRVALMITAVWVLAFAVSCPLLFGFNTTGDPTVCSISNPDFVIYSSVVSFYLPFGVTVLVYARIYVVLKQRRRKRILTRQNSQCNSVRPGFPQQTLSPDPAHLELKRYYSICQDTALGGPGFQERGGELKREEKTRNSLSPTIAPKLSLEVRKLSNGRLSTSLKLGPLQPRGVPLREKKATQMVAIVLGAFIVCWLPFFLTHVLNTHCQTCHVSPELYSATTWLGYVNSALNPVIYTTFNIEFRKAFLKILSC
# [3] = target: DRD2 F1103.28A (Homo sapiens, UniProt P14416, F110A); type: binding; set-up: expressed in transfected cells; host or cells: HEK293T (ATCC CRL-11268); settings: DRD2 F1103.28A
# Chain of DRD2 F1103.28A (P14416 whole entry F110A): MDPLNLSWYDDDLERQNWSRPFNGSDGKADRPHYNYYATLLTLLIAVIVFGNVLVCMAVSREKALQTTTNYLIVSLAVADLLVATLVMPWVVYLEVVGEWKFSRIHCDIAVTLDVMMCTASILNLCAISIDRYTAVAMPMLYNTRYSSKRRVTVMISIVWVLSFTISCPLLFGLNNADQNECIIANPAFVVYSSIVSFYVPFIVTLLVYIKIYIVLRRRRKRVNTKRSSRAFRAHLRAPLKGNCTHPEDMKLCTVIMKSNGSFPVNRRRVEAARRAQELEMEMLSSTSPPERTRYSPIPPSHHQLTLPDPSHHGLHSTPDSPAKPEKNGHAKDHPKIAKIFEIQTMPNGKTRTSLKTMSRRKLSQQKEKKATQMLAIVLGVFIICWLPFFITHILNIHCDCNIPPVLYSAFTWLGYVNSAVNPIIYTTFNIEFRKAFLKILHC
# [4] = target: DRD3 (Homo sapiens, UniProt P35462); experiment: β-arrestin2 recruitment (Tango); type: cell-based; settings: DRD3; Tango; read-out: EC50 ± SEM
# Chain of DRD3 (P35462 whole entry): as the sequence (P35462 whole entry) above
# [5] = target: DRD2 (D2 long receptor) wild-type (Homo sapiens, UniProt P14416); experiment: Radioligand competition binding, [3H]-N-methylspiperone, HEK293T membranes
# Chain of DRD2 (D2 long receptor) wild-type (P14416 whole entry): as the sequence (P14416 whole entry F110A) above, with A110F counted along it
# [6] = target: T2, DRD2 (D2 long receptor) (Homo sapiens, UniProt P14416); experiment: β-arrestin2 recruitment (Tango), HTLA cells; type: cell-based; settings: for Response, Fig_S11c dose-response: individual replicates
# T2 sequence (P14416 whole entry): as the sequence (P14416 whole entry F110A) above, with A110F counted along it
# [7] = target: T3, DRD4 (D4.4 variant) wild-type (Homo sapiens, UniProt P21917); experiment: Radioligand competition binding, [3H]-N-methylspiperone; settings: DRD4; [3H]-methylspiperone (0.8-1.0 nM); read-out: Ki
# T3 sequence (P21917 1-419): T1 sequence (P21917 1-419)
# [8] = target: T1, DRD4 (D4.4 variant); experiment: β-arrestin2 recruitment (Tango); type: cell-based; settings: DRD4; Tango; read-out: EC50 ± SEM
# [9] = target: T2, DRD2 (D2 long receptor); experiment: Gαi/o-mediated cAMP inhibition (GloSensor split-luciferase cAMP reporter), HEK293T; type: cell-based; settings: for Response, Fig_S11b dose-response: individual replicates;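 on all read-outs here: compounds applied 15 min at room temperature, then luciferin plus 400 nM isoproterenol to raise cAMP through endogenous β2-adrenergic receptors, luminescence read 15 min later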
smiles,measurement,setting,value
CCCCOc1cccc2cc(C(C)NCC3(O)CCCCC3)oc12.Cl (stereo not drawn) [O6LE6],EC50,[1],> 10000 nM
same,Ki,"[2]; DRD3, [3H]-methylspiperone (0.8-1.0 nM), read-out: Ki",850 nM
same,pKi ± SEM,[2]; DRD3 wild-type,6.07±0.01
same,pKi ± SEM,[3],6.53±0.31
same,Ki,[3]; read-out: Ki,300 nM
same,EC50,[4],> 10000 nM
same,Ki,"[5]; DRD2, [3H]-methylspiperone (0.8-1.0 nM), read-out: Ki",2040 nM
same,pKi ± SEM,[5]; DRD2 wild-type,5.69±0.06
same,Emax relative to quinpirole response,"[6]; DRD2, Tango",83.11%
same,EC50,"[6]; DRD2, β-arrestin2 recruitment (Tango), read-out: EC50 ± SEM",557 ± 129 nM
same,"response, Fig_S11c dose-response source data","[6]; Fig_S11c, Log[Drug] -5, replicate values",102.612 and 76.914 and 118.815 and 128.686 and 107.344 and 93.7459 and 91.4018 and 94.1354
same,"Response, Fig_S11c dose-response",[6]; Log[Drug] -6.52,31.2199 and 46.2944 and 28.6852
same,"Response, Fig_S11c dose-response",[6]; Log[Drug] -7,11.3874 and 10.0089 and 10.6537 and 8.17 and 16.7384 and 23.3506 and 16.3825 and 16.4206 and 21.2486
same,"Response, Fig_S11c dose-response",[6]; Log[Drug] -7.52,2.983 and 1.764 and 4.002 and -3.309 and -7.696 and -0.6325 and 11.3698 and 6.994 and 12.6997
same,"Response, Fig_S11c dose-response",[6]; Log[Drug] -8,3.216 and 0.7671 and -0.1186 and 4.58 and -7.813 and 8.0383 and 4.755 and 0.516 and 2.286
same,"Response, Fig_S11c dose-response",[6]; Log[Drug] -8.52,2.679 and 1.071 and -1.473 and 0.4627 and -3.045 and 4.511 and 0.1556 and -1.011
same,"Response, Fig_S11c dose-response",[6]; Log[Drug] -9,0.7411 and 0.1816 and 1.971 and -2.53 and -2.659 and 6.978 and 2.24 and -0.7813 and 0.4791
same,"Response, Fig_S11c dose-response",[6]; Log[Drug] -9.52,1.675 and 0.3261 and 1.23 and 1.988 and 0.5154 and 6.132 and 2.922 and -0.3739 and -1.362
same,"Response, Fig_S11c dose-response",[6]; Log[Drug] -10,0.7745 and 3.454 and 0.4706 and -6.955 and -3.6985 and -1.1362 and 1.072 and 0.3907 and -1.333
same,"Response, Fig_S11c dose-response",[6]; Log[Drug] -10.52,0.1927 and 0.4854 and 0.3409 and -1.124 and 8.703 and 5.11 and 0.478 and 0.806 and 3.44
same,"Response, Fig_S11c dose-response",[6]; Log[Drug] -11,0.4891 and -0.1075 and 0.05188 and -6.3018 and 5.0836 and -3.93 and -2.3709 and 4.648 and -1.497
same,"Response, Fig_S11c dose-response",[6]; Log[Drug] -11.52,2.264 and 2.713 and 0.6374 and -3.324 and 3.804 and -6.217 and 0.5754 and 2.325 and 0.9369
same,"Response, Fig_S11c dose-response",[6]; Log[Drug] -12,0.04817 and -0.3928 and 5.406 and 4.214 and -4.302 and -2.66 and 3.553 and -0.8933
same,Ki,[7],> 10000 nM
same,EC50,[8],> 10000 nM
same,EC50,"[9]; DRD2, agonist, Gαi/o-mediated cAMP inhibition, read-out: EC50 ± SEM",46.4 ± 15.4 nM
same,Emax relative to quinpirole response,"[9]; DRD2, cAMP inhibition",96.65%
same,"Response, Fig_S11b dose-response",[9]; Log[Drug] -5,81.0159 and 81.9991 and 95.2013 and 90.5911 and 100.378 and 91.8314 and 90.3639 and 94.9855 and 86.3213
same,"Response, Fig_S11b dose-response",[9]; Log[Drug] -5.52,88.5768 and 95.2247 and 77.4579 and 98.4012 and 97.1899 and 97.626 and 96.6191 and 98.263 and 92.5248
same,"Response, Fig_S11b dose-response",[9]; Log[Drug] -6,91.3624 and 86.7743 and 72.7996 and 95.3198 and 99.2054 and 99.6124 and 91.2428 and 94.603 and 88.8234
same,"Response, Fig_S11b dose-response",[9]; Log[Drug] -6.52,80.2434 and 83.1695 and 87.1255 and 85.3392 and 85.0097 and 83.4496 and 88.4512 and 85.5769 and 83.1472
same,"Response, Fig_S11b dose-response",[9]; Log[Drug] -7,58.0056 and 50.7491 and 42.2987 and 73.1202 and 72.0543 and 69.6996 and 76.9851 and 77.9363 and 79.6216
same,"Response, Fig_S11b dose-response",[9]; Log[Drug] -7.52,45.2247 and 26.7088 and 25.0468 and 53.9826 and 53.3236 and 57.1802 and 56.5964 and 48.0046 and 46.7638
same,"Response, Fig_S11b dose-response",[9]; Log[Drug] -8,27.6217 and 13.9045 and 1.873 and 27.4516 and 30.7752 and 36.8798 and 38.172 and 42.1216 and 42.4628
same,"Response, Fig_S11b dose-response",[9]; Log[Drug] -8.52,12.8745 and -2.8324 and -17.6966 and 25 and 13.7985 and 29.6899 and 21.5778 and 11.2386 and 28.598
same,"Response, Fig_S11b dose-response",[9]; Log[Drug] -9,19.5459 and 15.9176 and 4.8221 and 21.5698 and 25.5426 and 29.7481 and 11.342 and 13.0583 and 27.4194
same,"Response, Fig_S11b dose-response",[9]; Log[Drug] -11,6.507 and 4.611
same,"Response, Fig_S11b dose-response",[9]; Log[Drug] -11.52,28.839 and 31.7182 and 13.2022 and 1.376 and -1.3857 and 16.4244 and 10.2357 and 2.895 and 29.146
same,"Response, Fig_S11b dose-response",[9]; Log[Drug] -12,23.5955 and 3.886 and -4.2135 and -2.9264 and -5.2713 and 2.829 and 6.638 and 20.6162
